Here are results for six compounds from patent US11040958B2, “Triazole antimicrobial derivative, pharmaceutical composition and use thereof” (priority 2017, dated 2021).

Like-named read-outs stand apart in the source and are kept apart here.

The nature of series [1]: In vitro metabolic stability in rat intestinal S9. Format: in vitro ADME. The following applies: 37°C, S9 1 mg/mL, compound 10 μM, NADPH regeneration system. Here is the method: (§1) The two reaction systems were set up three samples in parallel, while each sample was taken in an amount of 100 μL at 1 min, 2 mins, 5 mins, 15 mins, and 30 mins after the reaction, added to the centrifuge tube containing 400 μL of 0° C. pre-cooled internal standard working fluid and terminated the reaction. The sample was mixed by vortex for 1 min, centrifuged at 10,000×g for 10 mins in a 4° C. pre-cooled high-speed centrifuge. The supernatant was taken for HPLC detection. […] Concentration of mother liquor of compounds: 1 mM […] [table]

Series [2] is described as follows: In vitro metabolic stability in rat plasma. Format: in vitro ADME. The settings on record: 37°C, compound 10 μM. Here is the method: The two reaction systems were set up three samples in parallel, while each sample was taken in an amount of 100 μL at 1 min, 2 mins, 5 mins, 15 mins, and 30 mins after the reaction, added to the centrifuge tube containing 400 μL of 0° C. pre-cooled internal standard working fluid and terminated the reaction. The sample was mixed by vortex for 1 min, centrifuged at 10,000×g for 10 mins in a 4° C. pre-cooled high-speed centrifuge. The supernatant was taken for HPLC detection. […] Concentration of mother liquor of compounds: 1 mM […]

The nature of series [3]: In vitro metabolic stability in human intestinal S9. Format: in vitro ADME. The following applies: 37°C, S9 1 mg/mL, compound 10 μM, NADPH regeneration system. Here is the method: as §1
Series [4] in a line: Solubility test in deionized water (HPLC, external calibration). Format: physicochemical. Here is the method:
Experimental condition: 25±2° C.
Dissolving medium: deionized water
Experimental method: 1 mg voriconazole and appropriate amount of each compound were weighed, placed in 1 ml deionized water separately, shaken vigorously for 30 s every 5 mins for 30 mins.

Series [5] in a line: Pharmacokinetics after single intravenous administration in rats (plasma voriconazole). The following applies: rat, in vivo, 2.5 mg/kg. Here is the method:
Dosage for administration: 2.5 mg/kg (calculated as voriconazole)
Dosing volume for administration: 2.5 ml/kg
Drug concentration: 1 mg/mL (calculated as voriconazole)
Route of administration: tail vein injection Experimental animals: SD rats, SPF grade, weighing 180-220 g, half male and half female; the SD rats were randomized into groups of 6 animals each, three males and three females in each group. Experimental method: Blood samples were collected at different time points after tail vein administration, and the plasma concentrations of voriconazole were measured.

Series [6] concerns Candida albicans ATCC10231. Briefly: Systemic fungal infection in mice, intravenous administration, survival. The settings on record: ICR mice, tail vein, 5 mg/kg (calculated as voriconazole) once daily for 5 days. Format: in vivo. Here is the method:
(§2) ICR mice, weighing 18-22 g, male, provided by the Hubei Experimental Animal Center.
(§3) The standard strain Candida albicans was purchased from the American Type Culture Collection, and the strain number was ATCC10231.
Before the experiment, a small amount of Candida albicans was picked from the SDA medium preserved at 4° C. by inoculation circle, and inoculated into 1 ml YPD (Yeast Extract Peptone Dextrose Medium, the same below) culture medium, under shake cultivation at 30° C., 200 rpm, activated for 16 hours to make the fungus in the late stage of the exponential growth phase. Blood cell counting plate was used to count. The concentration of the broth was adjusted to 1*10^3-5*10^3 CFU/ml with RPMI1640 (Roswell Park Memorial Institute 1640, the same below) culture medium. The Candida albicans monoclone on the SDA plate was picked and inoculated into 1 ml YPD medium, cultured at 35° C., 200 rpm for 16 hours to the late exponential growth phase, 1% of which was then inoculated in fresh medium for 6 hours, centrifuged at 1000×g for 5 mins, washed three times with saline until the supernatant was colorless, while hemocytometer was used to count. The cell concentration was adjusted to 5*10^6/ml. The tail vein injection of 0.1 ml/10 g was carried out to cause a systemic fungal infection in mice. The mice were randomized into groups of 10 each. Since voriconazole was insoluble in vehicle (physiological saline), the mice of the voriconazole group in the test were injected a commercially available voriconazole (Pfizer, product lot number Z467001), that is, sulfobutyl ether-β-cyclodextrin used as a solubilizer, while other groups used physiological saline as a solvent. After establishing a systemic fungal infection model in mice for 2 hours, each administration group was administered with 5 mg/kg (calculated as voriconazole) drug in the tail vein, with the volume for administration of 0.1 ml/10 g. The mice in the model group were administered 0.1 ml/10 g of 0.9% sodium chloride solution, once daily, for 5 consecutive days. The death situation of the mice was inspected and the survival time was recorded. After a total of 7 days of observation, all dead mice were treated with fire using ethanol.

Series [7] is described as follows: Solid stability test (25°C, RH 60%, 30 days). Format: physicochemical. The following applies: 25°C±2°C, relative humidity 60%±2%. Here is the method: Experimental conditions: 25° C.±2° C., relative humidity 60%±2%
Experimental instrument: Agilent 1260 HPLC; chamber for stability test
Experimental method: each compound of the present disclosure was packaged (the inner packaging material was a penicillin bottle; the outer packaging material was a double-layer aluminum foil bag, and a desiccant was added inside and outside the package), placed in the chamber for stability test, at a temperature of 25° C.±2° C. and a relative humidity of 60%±2%. The degradation situation of the compounds for 30 days was examined. The contents of total impurities before and after 30 days of each compound were compared and the results were as follows: […]

A short description of series [8]: Pharmacokinetics after single gastrointestinal (gavage) administration in rats (plasma voriconazole). The following applies: SD rats, 2.5 mg/kg (calculated as voriconazole). Format: in vivo. Here is the method:
Dosing volume for administration: 10 ml/kg
Solvent medium for administration: except for the positive voriconazole group using CMC-Na, the other groups using normal saline
Route of administration: gavage

In series [9] the test system is Candida albicans ATCC10231. Briefly: Systemic fungal infection in mice, administration by gavage, survival. Format: in vivo. The following applies: ICR mice, 5 mg/kg (calculated as voriconazole) once daily for 5 days. Here is the method: as §2, §3
Before the experiment, a small amount of Candida albicans was picked from the SDA medium preserved at 4° C. by inoculation circle, inoculated into 1 ml of YPD culture medium, and cultured at 30° C. while being shaken at 200 rpm for 16 hours to make the fungus in the late stage of exponential growth. Blood cell counting plate was used to count, and the concentration of the broth was adjusted to 1*10^3−5*10^3 CFU/ml with RPMI1640 medium. The Candida albicans monoclone on the SDA plate was picked, inoculated into 1 ml YPD medium, cultured at 35° C., 200 rpm for 16 hours to the late exponential growth phase, 1% of which was then inoculated in fresh medium for 6 hours, centrifuged at 1000×g for 5 mins, washed three times with saline until the supernatant was colorless, while hemocytometer was used to count. The cell concentration was adjusted to 5*10^6/ml. The tail vein injection of 0.1 ml/10 g was carried out to cause a systemic fungal infection in mice. The mice were randomized into groups of 10 each. Voriconazole used was in the form of a suspension prepared with CMC-Na (Shanghai Panhong Chemical Technology Co., Ltd.), while other tested drugs were dissolved in saline and sonicated until clarified for administration. After establishing a systemic fungal infection model in mice for 2 hours, each group was administered by gavage with 5 mg/kg (calculated as voriconazole) drug, with the volume for administration of 0.1 ml/10 g. The mice in the model group were administered 0.1 ml/10 g of 0.9% sodium chloride solution, once daily, for 5 consecutive days. The death situation of the mice was inspected and the survival time was recorded. After a total of 7 days of observation, all dead mice were treated with fire using ethanol.

`CC(OC(=O)N(C)c1ncccc1COC(=O)[C@@H](N)CCN)[n+]1cnn(C[C@](O)(c2ccc(F)cc2F)[C@@H](C)c2ncncc2F)c1.[Cl-]` (stereo partly shown) [QR16005]: the “Rat intestinal S9 T1/2” value in [1] was 26.52 ± 3.69 min. Besides, the “Rat plasma T1/2” value in series [2] is 8.25 ± 1.28 min. The “Human intestinal S9 T1/2” value in [3] was 18.21 ± 2.04 min. Besides, the Solubility in [4] was >50 mg/mL.

For `CC(OC(=O)N(C)c1ccccc1COC(=O)[C@@H](N)CCCN)[n+]1cnn(C[C@](O)(c2ccc(F)cc2F)[C@@H](C)c2ncncc2F)c1.[Cl-]` (stereo partly shown) [QR16007], in series [5], the AUClast was 10278 ± 3225 ng·h/mL and the T1/2 was 173 ± 73.2 min. Also, in series [6] (day 1), the “survival rate of mice, day 1” value is recorded as 100%. Moreover, in series [6] (day 2), the “survival rate of mice, day 2” value is 100%. In addition, the “survival rate of mice, day 3” value in [6] (day 3) is 100%. The “survival rate of mice, day 4” value in series [6] (day 4) is 100%. The “survival rate of mice, day 5” value in series [6] (day 5) is 100%. The “survival rate of mice, day 6” value in [6] (day 6) was 90%. Moreover, the Solubility in [4] (deionized water, 25±2°C) is given as >50 mg/mL. Also, the “Content increase of total impurity (25° C., placed for 30 days)” value (“Content increase of total impurity” for short) in [7] turned out to be 0.73%.

On to `CC(OC(=O)N(C)c1ncccc1COC(=O)[C@@H](N)CCCNC(N)=O)[n+]1cnn(C[C@](O)(c2ccc(F)cc2F)[C@@H](C)c2ncncc2F)c1.[Cl-]` (stereo partly shown) [QR16009], for which the T1/2 entry in [5] was “similar”. For the same compound, in series [8], the AUClast was 7225 ± 1310 ng·h/mL, the Cmax was 925 ± 121 ng/mL and the T1/2 was 119 ± 52.2 min. For the same compound, in series [9], the “survival rate of mice, day 1” value was 100%; the “survival rate of mice, day 2” value is recorded as 80%; the “survival rate of mice, day 3” value was 80%; the “survival rate of mice, day 4” value is listed as 70%. In addition, in [9], the “survival rate of mice, day 5” value is listed as 70% and the “survival rate of mice, day 6” value is on record as 70%. Also, the “survival rate of mice, day 7” value in [9] (day 7) is reported as 70%. In addition, the Solubility in [4] (deionized water, 25±2°C) is given as >50 mg/mL. Moreover, in series [7], the “Content increase of total impurity” value is recorded as 0.71%.

As to `CNCc1cccnc1N(C)C(=O)OC(C)[n+]1cnn(C[C@](O)(c2ccc(F)cc2F)[C@@H](C)c2ncncc2F)c1` (stereo partly shown) [QR16023], the T1/2 result in series [5] is on record as “similar”. Also, in series [9], the “survival rate of mice, day 1” value is given as 100%; the “survival rate of mice, day 2” value is reported as 90%; the “survival rate of mice, day 3” value was 70%; the “survival rate of mice, day 4” value is 70%. Further, in series [9], the “survival rate of mice, day 5” value is given as 60% and the “survival rate of mice, day 6” value was 60%. Also, the “survival rate of mice, day 7” value in [9] (day 7, 5 mg/kg) is given as “same with the positive drug voriconazole group”. Moreover, the solubility at 30 min in series [4] (25 °C, thermodynamic from solid, deionized water, 25±2°C) is > 50 mg/mL. In addition, the “Content increase of total impurity” value in series [7] amounted to 2.63%.

For the compound `CC(OC(=O)OCCOCCOP(=O)(O)O)[n+]1cnn(C[C@](O)(c2ccc(F)cc2F)[C@@H](C)c2ncncc2F)c1` (stereo partly shown) [QR16030], in series [8], the AUClast was 4324 ± 1362 ng·h/mL and the T1/2 was 152 ± 63 min. Further, in series [9], the “survival rate of mice, day 1” value is 100%; the “survival rate of mice, day 2” value is 90%; the “survival rate of mice, day 3” value is given as 80%; the “survival rate of mice, day 4” value is reported as 70%. Besides, in series [9], the “survival rate of mice, day 5” value is recorded as 60% and the “survival rate of mice, day 6” value is given as 50%. Further, in [4] (deionized water, 25±2°C), the Solubility is on record as >50 mg/mL. Also, the “Content increase of total impurity” value in [7] came out at 0.94%.

As for `CN[C@@H](CSC(=O)OC(C)[n+]1cnn(C[C@](O)(c2ccc(F)cc2F)[C@@H](C)c2ncncc2F)c1)C(=O)O.Cl.[Cl-]` (stereo partly shown) [QR16035], in series [1], the “Rat intestinal S9 T1/2” value is given as 35.62 ± 8.12 min. The compound further came in with an AUClast in series [5] of 8256 ± 1256 ng·h/mL. Also, the “Rat plasma T1/2” value in [2] is listed as 11.85 ± 3.77 min. The “Human intestinal S9 T1/2” value in [3] is recorded as 29.12 ± 2.09 min. Also, in series [7], the “Content increase of total impurity” value was 1.21%.
